Source: patent publication US20220348572A1, “BRIDGED HETEROCYCLYL-SUBSTITUTED PYRIMIDINE COMPOUND, PREPARATION METHOD THEREFOR, AND PHARMACEUTICAL USE THEREOF” (The National Institutes of Pharmaceutical R&D Co., Ltd., priority 2019, published 2022)

Legend:
[1] = Pharmacokinetic study in rats after oral administration; format: in vivo, SD rats; settings: for pharmacokinetic parameters (in words): oral administration in SD rats; for AUC(0-t) / Cmax: rat, male SD rats, oral 5 mg/kg, plasma
Procedure: Experimental Example 5: Pharmacokinetic Studies of the Compounds of Example 1, Example 1-a, Example 1-b and Example 3 in Rats In order to investigate the blood concentration and pharmacokinetic parameters of the compounds of the present invention after oral administration, the corresponding LC/MS/MS assay and plasma treatment methods were developed for the compounds of the Experimental Examples. […] Male SD rats were orally administered at a dose of 5 mg/kg. Blood was orbitally collected and anticoagulated with sodium heparin. The plasma was deproteinated with acetonitrile. The samples were analyzed by LC/MS/MS method. Wherein, AUC<1000 μg/L*h is shown as C, AUC between 1000-2000 μg/L*h is shown as B, AUC>2000 μg/L*h is shown as A; Cmax<600 μg/L is shown as C, Cmax between 600-900 μg/L is shown as B, and Cmax>900 μg/L is shown as A.

TYK2 kinase = molecular target: T1, TYK2 kinase (Homo sapiens, UniProt P29597); experiment: In vitro inhibitory activity on Tyk2 kinase (ADP-Glo Kinase Assay); format: biochemical; settings: TYK2 kinase 4 nM, 1 mM ATP
T1 sequence (P29597 897-1187 limits assumed): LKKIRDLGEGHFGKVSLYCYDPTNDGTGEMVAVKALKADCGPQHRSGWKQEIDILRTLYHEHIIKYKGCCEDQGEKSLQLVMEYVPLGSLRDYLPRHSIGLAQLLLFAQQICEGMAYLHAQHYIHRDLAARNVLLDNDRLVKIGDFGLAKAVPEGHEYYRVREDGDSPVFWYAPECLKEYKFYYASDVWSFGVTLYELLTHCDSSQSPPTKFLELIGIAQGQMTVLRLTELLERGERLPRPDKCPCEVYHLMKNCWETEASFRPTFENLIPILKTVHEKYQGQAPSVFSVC
Procedure: Test Example 2: Determination of In Vitro Inhibitory Activity of the Compounds of the Present Invention on Tyk2 Kinase Experimental materials: TYK2 (Invitrogen, PV4790), ATP (Promega, V915B), ADP-Glo Kinase Assay (Promega, V9101), IRS1 (Signalchem, 140-58-1000). Sample preparation: The compounds of the present invention and the control product were dissolved in DMSO solvent respectively to formulate into 10 mM initial liquid. The maximum concentration of the compound was 10 μM, 3-fold dilution, 10 concentration gradients, and duplicate wells for each concentration gradient. Experimental process: 0.1 μL of the compound to be tested was transferred into a 384 reaction plate (PE, 6007290) via Echo and centrifuged at 1000 rpm/min for 1 min. 5 μL TYK2 kinase (final concentration of 4 nM) was transferred into the 384 reaction plate, which was then centrifuged at 1000 rpm/min for 1 min, and incubated at 25° C. for 15 min. 5 μL substrate mixture (1 mM ATP, IRS1 0.05 mg/ml, kinase buffer solution) was transferred into the 384 reaction plate, which was then centrifuged at 1000 rpm/min for 1 min, and incubated at 25° C. for 60 min. 10 μL ADP-Glo was transferred into the 384 reaction plate, which was then centrifuged at 1000 rpm/min for 1 min, and incubated at 25° C. for 40 min. 20 μL test solution was transferred into the 384 reaction plate, which was centrifuged at 1000 rpm/min for 1 min and incubated at 25° C. for 40 min. RLU (Relative luminescence unit) signal was read by using an Envision multifunctional plate reader. The signal intensity was used to characterize the degree of the kinase activity. […] IC50 value of 0-100 nM is shown as A, IC50 value of 100-300 nM is shown as B, IC50 value of 300-1000 nM is shown as C, and IC50 value which is greater than 1000 nM is shown as D. NT means not tested.

Row | SMILES | pharmacokinetic parameters (in words) [1] | AUC(0-t) [1] | Cmax [1] | IC50 (TYK2 kinase)
1 | Cn1cc(Nc2nccc(C3=CC4CCC(C3)N4C(=O)NCC(F)(F)F)n2)cn1 (stereo not drawn) [Compound 3, 3-(2-((1-methyl-1H-pyrazol-4-yl)amino)pyrimidin-4-yl)-N-(2,2,2-trifluoroethyl)-8-azabicyclo[3.2.1]oct-2-ene-8-carboxamide] | good pharmacokinetic parameters | 1000 to 2000 ng·h/mL | 600 to 900 ng/mL | < 100 nM
2 | Cn1cc(Nc2nccc(C3=CC4CCC(C3)N4C(=O)[C@@H]3CC3(F)F)n2)cn1 (stereo partly drawn) [Compound 1, ((S)-2,2-difluorocyclopropyl)(3-(2-((1-methyl-1H-pyrazol-4-yl)amino)pyrimidin-4-yl)-8-azabicyclo[3.2.1]oct-2-en-8-yl)methanone] | good pharmacokinetic parameters | > 2000 ng·h/mL | > 900 ng/mL | < 100 nM
3 | Cn1cc(Nc2nccc(C3=C[C@H]4CC[C@@H](C3)N4C(=O)[C@@H]3CC3(F)F)n2)cn1 [Compound 1-b, ((S)-2,2-difluorocyclopropyl)((1R,5S)-3-(2-((1-methyl-1H-pyrazol-4-yl)amino)pyrimidin-4-yl)-8-azabicyclo[3.2.1]oct-2-en-8-yl)methanone] | good pharmacokinetic parameters | > 2000 ng·h/mL | > 900 ng/mL | < 100 nM
